These are literature values, as cited in patent US12409165B2, “Pharmaceutical composition comprising eltrombopag bis(monoethanolamine)” (SYNTHON B.V., priority 2019, dated 2025).

The conditions of data set [1]: qualitative statement in the background, no method given.
The conditions of data set [2]: qualitative statement in the background, no method given. The source holds these as a separate data set.

`CC1=NN(c2ccc(C)c(C)c2)C(=O)/C1=N\Nc1cccc(-c2cccc(C(=O)O)c2)c1O.NCCO.NCCO` [Eltrombopag bis(monoethanolamine), 3′-{(2Z)-2-[1-(3,4-dimethylphenyl)-3-methyl-5-oxo-1,5-dihydro-4H-pyrazol-4-ylidene]hydrazino}-2′-hydroxy-3-biphenyl-carboxylic acid bis(monoethanolamine)]: the solubility entry in data set [1] is reported as “low”. The permeability result in data set [2] is reported as “medium”.
